Drawing on ChEMBL document CHEMBL1158232, “Isolation of Polyhydroxysteroids from the Gorgonian Acabaria undulata” (J Nat Prod, 1996), this text covers IC50 and Activity for four compounds.

Structures are written as SMILES. The source made the active and inactive calls. The rule behind the calls is not given here.

Experiment [1] deals with DLD-1. The experiment can be described thus: Cytotoxicity against human DLD1 cells. The class given is functional, cell-based.
Experiment [2] deals with T1, Phospholipase A2 (Homo sapiens, UniProt P04054). Briefly: Inhibition of PLA2.
Target sequence in this assay (P04054 whole entry): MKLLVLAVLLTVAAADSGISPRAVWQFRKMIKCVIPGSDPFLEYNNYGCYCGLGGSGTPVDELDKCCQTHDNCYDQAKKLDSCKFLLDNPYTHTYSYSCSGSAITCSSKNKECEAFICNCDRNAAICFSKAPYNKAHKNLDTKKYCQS
In experiment [3] the test system is P388. Briefly: Cytotoxicity against mouse P388 cells. The class given is functional, cell-based.
Experiment [4] concerns the target T1, Phospholipase A2. Briefly: Inhibition of PLA2 at 100 uM.
Target sequence in this assay (P04054 23-148 limits assumed): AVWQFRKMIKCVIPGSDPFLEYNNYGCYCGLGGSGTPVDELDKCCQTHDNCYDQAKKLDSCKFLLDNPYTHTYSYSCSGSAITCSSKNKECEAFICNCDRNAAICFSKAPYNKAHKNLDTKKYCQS

Broadly, the IC50 is the concentration at which inhibition is half-maximal. For `CC(C)/C=C/[C@@H](C)[C@H]1CC[C@@H]2[C@]1(C)CC[C@H]1[C@@]23O[C@@H]3[C@H](O)[C@@]2(O)C[C@@H](O)CC[C@]12C`, the figures for the IC50 in experiment [1], in experiment [2] and in experiment [3] were 24.6 µM, 21.5 µM and 28.7 µM, respectively.

For `CC(=O)O[C@H]1CC[C@]2(C)[C@H]3CC[C@]4(C)[C@@H]([C@H](C)/C=C/CC(C)C)CC[C@H]4[C@]34O[C@@H]4[C@H](OC(C)=O)[C@@]2(O)C1`, the results for the IC50 in experiment [1] and in experiment [3] were 12.6 µM and 11.6 µM, respectively. In experiment [4], the outcome was inactive.

In the case of `CC(C)CCC[C@@H](C)[C@H]1CC[C@@H]2[C@]1(C)CC[C@H]1[C@@]23O[C@@H]3[C@H](O)[C@@]2(O)C[C@@H](O)CC[C@]12C`, the IC50 was determined as 19.6 µM in experiment [1], 13.8 µM in experiment [2] and 17.9 µM in experiment [3].

For the compound `CC(C)C(C)/C=C/[C@@H](C)[C@H]1CC[C@@H]2[C@]1(C)CC[C@H]1[C@@]23O[C@@H]3[C@H](O)[C@@]2(O)C[C@@H](O)CC[C@]12C` (some centres not stated), the figures for the IC50 in experiment [1] and in experiment [3] were 22.4 µM and 20.2 µM, respectively. Moreover, the outcome in experiment [4] was inactive.
